Assay results published in patent publication US20230270713A1, “Administration of Resiniferatoxin For Treatment of Bladder Pain or Bladder Cancer” (Sorrento Therapeutics, Inc., priority 2020, published 2023).
Where “and” joins values, the source holds several entries; their conditions need not be identical. Equal values may be shown once. Read-outs that look alike come from different tables or passages of the source.

Assay: Pharmacokinetic/toxicokinetic profile of RTX after intravesical instillation in dogs
Assay type: in vivo, dog
Experimental: Local tolerance and the pharmacokinetic (PK), and toxicokinetic (TK) profile of RTX in dogs was determined after a single instillation of RTX into the bladder of dogs (n=6). The RTX formulations were prepared using aseptic techniques in a biological safety cabinet (BSC) by mixing the appropriate amount of diluent with the appropriate amount of RTX. Dosing formulation concentrations used were 1 and 10 mcg/mL.
Three male and three female dogs ranging in weight from 5.95 to 8.60 kg were used in the study. The dogs were assigned into Group 1 (receiving a dose of 1 mcg/mL RTX) or Group 2 (receiving a dose of 10 mcg/mL RTX) as shown in the Table 3 below.
RTX was administered via intravesical instillation into the urinary bladder. The animals were given a single dose of 25 or 250 mcg/dose in a total volume of 25 mL on Day 1 over a period of 1 hour (±5 minutes). RTX and diluent were administered to the dogs under general anesthesia via a Foley catheter placed into the bladder for 1 hour (±5 minutes).
Blood samples were collected from all animals on Day 1 pre-dose and at 0.5, 1, 2, 4, 6, 12, 24, 36, 48, 60, and 72 hours post-dose. The toxicokinetic (TK) parameters were determined for RTX, and if appropriate, the metabolites, from mean concentration-time data.
Cmax is the observed maximum plasma concentration from the start of dosing. Tmax is the time to reach the Cmax. AUC(0-T) is the area under the plasma concentration-time curve from time zero to the last measurable time point calculated by the linear trapezoidal rule.

[1] = male dogs 1003, 1005 individual, 250 mcg intravesical
[2] = male dogs, 250 mcg intravesical

## C=C(C)[C@]12C[C@@H](C)[C@@]34O[C@](Cc5ccccc5)(O[C@@H]1[C@@H]3C=C(COC(=O)Cc1ccc(O)c(OC)c1)C[C@]1(O)C(=O)C(C)=C[C@@H]41)O2 [RTX, resiniferatoxin]
Male and female dogs, 250 mcg, post-dose
  time by which RTX plasma concentrations fell to zero: ≤ 4 h
Male and female dogs, single 250 mcg intravesical instillation
  absorption into the systemic circulation: absorbed rapidly
Male dog 1001, 25 mcg intravesical, 0.5 h
  Plasma concentration of RTX: BQL (*BQL—Below quantifiable limit (<50.0 pg/mL); adequate signal-to-noise enabled reporting value as estimate)
Male dog 1001, 25 mcg intravesical, 2 h
  Plasma concentration of RTX: BQL (*BQL—Below quantifiable limit (<50.0 pg/mL); adequate signal-to-noise enabled reporting value as estimate)
Male dog 1001, 25 mcg intravesical, 4 h
  Plasma concentration of RTX: BQL (*BQL—Below quantifiable limit (<50.0 pg/mL); adequate signal-to-noise enabled reporting value as estimate)
Male dog 1001, 25 mcg intravesical, 6 h
  Plasma concentration of RTX: BQL (*BQL—Below quantifiable limit (<50.0 pg/mL); adequate signal-to-noise enabled reporting value as estimate)
Male dog 1001, 25 mcg intravesical, 12 h
  Plasma concentration of RTX: BQL (*BQL—Below quantifiable limit (<50.0 pg/mL); adequate signal-to-noise enabled reporting value as estimate)
Male dog 1001, 25 mcg intravesical, 24 h
  Plasma concentration of RTX: BQL (*BQL—Below quantifiable limit (<50.0 pg/mL); adequate signal-to-noise enabled reporting value as estimate)
Male dog 1001, 25 mcg intravesical, 36 h
  Plasma concentration of RTX: BQL (*BQL—Below quantifiable limit (<50.0 pg/mL); adequate signal-to-noise enabled reporting value as estimate)
Male dog 1001, 25 mcg intravesical, 48 h
  Plasma concentration of RTX: BQL (*BQL—Below quantifiable limit (<50.0 pg/mL); adequate signal-to-noise enabled reporting value as estimate)
Male dog 1001, 25 mcg intravesical, 60 h
  Plasma concentration of RTX: BQL (*BQL—Below quantifiable limit (<50.0 pg/mL); adequate signal-to-noise enabled reporting value as estimate)
Male dog 1001, 25 mcg intravesical, 72 h
  Plasma concentration of RTX: BQL (*BQL—Below quantifiable limit (<50.0 pg/mL); adequate signal-to-noise enabled reporting value as estimate)
Male dog 1001, 25 mcg intravesical, Predose
  Plasma concentration of RTX: BQL (*BQL—Below quantifiable limit (<50.0 pg/mL); adequate signal-to-noise enabled reporting value as estimate)
[1]
  AUC(0-T): 0.365 ng·h/mL
  AUC(0-T)/Dose: 1.42 pg·h/mL/µg and 1.46 pg·h/mL/µg
  Cmax: 0.44 ng/mL
  Cmax/Dose: 1.06 pg/mL/µg and 1.76 pg/mL/µg
Male dogs 1003, 1005 individual, 250 mcg intravesical, 0.5 h
  Plasma concentration of RTX: 0.44 ng/mL
Male dogs 1003, 1005 individual, 250 mcg intravesical, 1 h
  Plasma concentration of RTX: 0.151 ng/mL
Male dogs 1003, 1005 individual, 250 mcg intravesical, 2 h
  Plasma concentration of RTX: 0.0633 ng/mL
Male dogs 1003, 1005 individual, 250 mcg intravesical, 4 h
  Plasma concentration of RTX: 0 ng/mL
Male dogs 1003, 1005 individual, 250 mcg intravesical, 6 h
  Plasma concentration of RTX: 0 ng/mL
Male dogs 1003, 1005 individual, 250 mcg intravesical, 12 h
  Plasma concentration of RTX: 0 ng/mL
Male dogs 1003, 1005 individual, 250 mcg intravesical, 24 h
  Plasma concentration of RTX: 0 ng/mL
Male dogs 1003, 1005 individual, 250 mcg intravesical, 36 h
  Plasma concentration of RTX: 0 ng/mL
Male dogs 1003, 1005 individual, 250 mcg intravesical, 48 h
  Plasma concentration of RTX: 0 ng/mL
Male dogs 1003, 1005 individual, 250 mcg intravesical, 60 h
  Plasma concentration of RTX: 0 ng/mL
Male dogs 1003, 1005 individual, 250 mcg intravesical, 72 h
  Plasma concentration of RTX: 0 ng/mL
Male dogs 1003, 1005 individual, 250 mcg intravesical, Predose
  Plasma concentration of RTX: 0 ng/mL
[2]
  AUC(0-T)/Dose, Mean: 1.44 pg·h/mL/µg
  Cmax/Dose, Mean: 1.41 pg/mL/µg
Male dogs, 250 mcg intravesical, Predose
  Plasma concentration of RTX, Mean: 0 ng/mL
male, dog, plasma, 250 ug, male dogs 1003, 1005 individual, 250 mcg intravesical, read-out: AUC(0-T)
  AUC(0-t): 0.356 ng·h/mL
male, dog, plasma, 250 ug, male dogs 1003, 1005 individual, 250 mcg intravesical, read-out: Cmax
  Cmax: 0.264 ng/mL
male, dog, plasma, 250 ug, male dogs 1003, 1005 individual, 250 mcg intravesical, read-out: Tmax
  Tmax: 60 min
male, dog, plasma, 250 ug, male dogs, 250 mcg intravesical, read-out: AUC(0-T), Mean
  AUC(0-t): 0.361 ± 0.00636 ng·h/mL
male, dog, plasma, 250 ug, male dogs, 250 mcg intravesical, read-out: Cmax, Mean
  Cmax: 0.352 ± 0.124 ng/mL
male, dog, plasma, 250 ug, male dogs, 250 mcg intravesical, read-out: Tmax, Mean
  Tmax: 45 ± 21.2 min
male, dog, plasma, other: intravesical instillation, 250 ug, male dogs, 250 mcg intravesical, read-out: Tmax, Mean
  Tmax: 45 min
male, dog, plasma, other: intravesical instillation, 25 mcg, male dog 1001, 25 mcg intravesical, 1 h, read-out: Plasma concentration of RTX
  concentration at 1 h: 0.0155 ng/mL
male, dog, plasma, other: intravesical instillation, 250 mcg, male dogs 1003, 1005 individual, 250 mcg intravesical, 0.5 h, read-out: Plasma concentration of RTX
  concentration at 0.5 h: 0.257 ng/mL
male, dog, plasma, other: intravesical instillation, 250 mcg, male dogs 1003, 1005 individual, 250 mcg intravesical, 1 h, read-out: Plasma concentration of RTX
  concentration at 1 h: 0.264 ng/mL
male, dog, plasma, other: intravesical instillation, 250 mcg, male dogs 1003, 1005 individual, 250 mcg intravesical, 2 h, read-out: Plasma concentration of RTX
  concentration at 2 h: 0.0597 ng/mL
male, dog, plasma, other: intravesical instillation, 250 mcg, male dogs 1003, 1005 individual, 250 mcg intravesical, 4 h, read-out: Plasma concentration of RTX
  concentration at 4 h: 0 ng/mL
male, dog, plasma, other: intravesical instillation, 250 mcg, male dogs 1003, 1005 individual, 250 mcg intravesical, 6 h, read-out: Plasma concentration of RTX
  concentration at 6 h: 0 ng/mL
male, dog, plasma, other: intravesical instillation, 250 mcg, male dogs 1003, 1005 individual, 250 mcg intravesical, 12 h, read-out: Plasma concentration of RTX
  concentration at 12 h: 0 ng/mL
male, dog, plasma, other: intravesical instillation, 250 mcg, male dogs 1003, 1005 individual, 250 mcg intravesical, 24 h, read-out: Plasma concentration of RTX
  concentration at 24 h: 0 ng/mL
male, dog, plasma, other: intravesical instillation, 250 mcg, male dogs 1003, 1005 individual, 250 mcg intravesical, 36 h, read-out: Plasma concentration of RTX
  concentration at 36 h: 0 ng/mL
male, dog, plasma, other: intravesical instillation, 250 mcg, male dogs 1003, 1005 individual, 250 mcg intravesical, 48 h, read-out: Plasma concentration of RTX
  concentration at 48 h: 0 ng/mL
male, dog, plasma, other: intravesical instillation, 250 mcg, male dogs 1003, 1005 individual, 250 mcg intravesical, 60 h, read-out: Plasma concentration of RTX
  concentration at 60 h: 0 ng/mL
male, dog, plasma, other: intravesical instillation, 250 mcg, male dogs 1003, 1005 individual, 250 mcg intravesical, 72 h, read-out: Plasma concentration of RTX
  concentration at 72 h: 0 ng/mL
male, dog, plasma, other: intravesical instillation, 250 mcg, male dogs, 250 mcg intravesical, 0.5 h, read-out: Plasma concentration of RTX, Mean
  concentration at 0.5 h: 0.349 ng/mL
male, dog, plasma, other: intravesical instillation, 250 mcg, male dogs, 250 mcg intravesical, 1 h, read-out: Plasma concentration of RTX, Mean
  concentration at 1 h: 0.208 ng/mL
male, dog, plasma, other: intravesical instillation, 250 mcg, male dogs, 250 mcg intravesical, 2 h, read-out: Plasma concentration of RTX, Mean
  concentration at 2 h: 0.0615 ng/mL
male, dog, plasma, other: intravesical instillation, 250 mcg, male dogs, 250 mcg intravesical, 4 h, read-out: Plasma concentration of RTX, Mean
  concentration at 4 h: 0 ng/mL
male, dog, plasma, other: intravesical instillation, 250 mcg, male dogs, 250 mcg intravesical, 6 h, read-out: Plasma concentration of RTX, Mean
  concentration at 6 h: 0 ng/mL
male, dog, plasma, other: intravesical instillation, 250 mcg, male dogs, 250 mcg intravesical, 12 h, read-out: Plasma concentration of RTX, Mean
  concentration at 12 h: 0 ng/mL
male, dog, plasma, other: intravesical instillation, 250 mcg, male dogs, 250 mcg intravesical, 24 h, read-out: Plasma concentration of RTX, Mean
  concentration at 24 h: 0 ng/mL
male, dog, plasma, other: intravesical instillation, 250 mcg, male dogs, 250 mcg intravesical, 36 h, read-out: Plasma concentration of RTX, Mean
  concentration at 36 h: 0 ng/mL
male, dog, plasma, other: intravesical instillation, 250 mcg, male dogs, 250 mcg intravesical, 48 h, read-out: Plasma concentration of RTX, Mean
  concentration at 48 h: 0 ng/mL
male, dog, plasma, other: intravesical instillation, 250 mcg, male dogs, 250 mcg intravesical, 60 h, read-out: Plasma concentration of RTX, Mean
  concentration at 60 h: 0 ng/mL
male, dog, plasma, other: intravesical instillation, 250 mcg, male dogs, 250 mcg intravesical, 72 h, read-out: Plasma concentration of RTX, Mean
  concentration at 72 h: 0 ng/mL
